Like-named read-outs stand apart in the source and are kept apart here.
Assays:
[1] = test system: katG S315T mutant INH-resistant Mtb clinical isolate; format: cell-based, Mycobacterium tuberculosis
[2] = target: enoyl acyl carrier protein reductase (InhA) (Mycobacterium tuberculosis, UniProt P9WGR1); format: biochemical
[3] = test system: inhA promoter mutant INH-resistant Mtb clinical isolate; format: cell-based, Mycobacterium tuberculosis

Chain of enoyl acyl carrier protein reductase (InhA) (P9WGR1 whole entry, looked up): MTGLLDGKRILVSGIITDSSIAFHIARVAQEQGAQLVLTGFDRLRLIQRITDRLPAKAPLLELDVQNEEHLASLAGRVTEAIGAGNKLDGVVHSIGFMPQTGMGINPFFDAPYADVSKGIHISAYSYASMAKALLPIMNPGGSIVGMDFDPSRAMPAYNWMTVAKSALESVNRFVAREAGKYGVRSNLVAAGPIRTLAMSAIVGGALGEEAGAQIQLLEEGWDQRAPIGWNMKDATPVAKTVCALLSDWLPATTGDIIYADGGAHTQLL

Compound	MIC katG + [1]	% Inhibition of InhA ([2]; 50 µM compound)	MIC inhA + [3]	% Inhibition of InhA ([2]; 50 µM)
3-((2-Isonicotinoylhydrazono)methyl)phenyl 4-bromobenzenesulfonate [SIH5]	25 µM	33%		
3-((2-Isonicotinoylhydrazono)methyl)phenyl 4-methylbenzenesulfonate [SIH1]	50 µM	12%	1.56 µM	
NNC(=O)c1ccncc1 [Isoniazid, isonicotinic acid hydrazide, reference compound]	6.25 µM		1.56 µM	
3-((2-Isonicotinoylhydrazono)methyl)phenyl 4-iodobenzenesulfonate [SIH7]	>100 µM	41%	6.25 µM	
3-((2-Isonicotinoylhydrazono)methyl)phenyl quinoline-8-sulfonate [SIH13]	12.5 µM		3.12 µM	22%
3-((2-Isonicotinoylhydrazono)methyl)phenyl 4-(tert-butyl)benzenesulfonate [SIH2]	25 µM	25%	1.56 µM	
3-((2-Isonicotinoylhydrazono)methyl)phenyl 4-acetamidobenzenesulfonate [SIH11]	12.5 µM	10%	3.12 µM	
3-((2-Isonicotinoylhydrazono)methyl)phenyl 4-methoxybenzenesulfonate [SIH4]	6.25 µM	5%	1.56 µM	
3-((2-Isonicotinoylhydrazono)methyl)phenyl 2,4,6-trimethylbenzenesulfonate [SIH3]	50 µM		6.25 µM	
3-((2-Isonicotinoylhydrazono)methyl)phenyl 4-nitrobenzenesulfonate [SIH9]	25 µM	8%	3.12 µM	
3-((2-Isonicotinoylhydrazono)methyl)phenyl 4-chlorobenzenesulfonate [SIH6]	>100 µM	23%		
3-((2-Isonicotinoylhydrazono)methyl)phenyl 3-nitrobenzenesulfonate [SIH10]	12.5 µM	17%	3.12 µM	
3-((2-Isonicotinoylhydrazono)methyl)phenyl 2,5-dichlorobenzenesulfonate [SIH8]	12.5 µM		3.12 µM	
3-((2-Isonicotinoylhydrazono)methyl)phenyl [1,1′-biphenyl]-4-sulfonate [SIH12]	12.5 µM	31%	3.12 µM	
